Experimental data reported in ChEMBL document CHEMBL1125599, “Cholinergic activity of acetylenic imidazoles and related compounds” (J Med Chem, 1991).

Columns and labels:
Mus musculus [1] = assay: ED50 value determined as oxotremorine antagonism by measuring salivation in mice (in vivo); assay type: functional
Mus musculus [2] = assay: ED50 value determined as oxotremorine antagonism by measuring tremors in mice (in vivo); assay type: functional
Mus musculus [3] = assay: ED50 value as cholinergic agonism by measuring lacrimation in mice (in vivo); assay type: functional
Mus musculus [4] = assay: ED50 value as cholinergic agonist by measuring salivation in mice (in vivo); assay type: functional
Mus musculus [5] = assay: ED50 value as cholinergic agonist by measuring tremors in mice (in vivo); assay type: functional
Mus musculus [6] = assay: ED50 value determined as oxotremorine antagonism by measuring lacrimation in mice (in vivo); assay type: functional
[7] = biological target: Muscarinic acetylcholine receptor; assay: Binding affinity to muscarinic acetylcholine receptor was determined in presence of [3H]OXO-M radioligand (in vitro); assay type: protein assay
[8] = biological target: Muscarinic acetylcholine receptor; assay: Binding affinity to muscarinic acetylcholine receptor was determined in presence of [3H]QNB radioligand (in vitro); assay type: protein assay
[9] = biological target: Muscarinic acetylcholine receptor (Rattus norvegicus) (UniProt P08482+P08483+P08485+P08911+P10980); assay: Ratio of Ki value for QNB to that of Ki value for Oxo-M.; assay type: protein assay

Row | Structure (SMILES) | ED50 (Mus musculus [1]) | ED50 (Mus musculus [2]) | ED50 (Mus musculus [3]) | ED50 (Mus musculus [4]) | ED50 (Mus musculus [5]) | ED50 (Mus musculus [6]) | Ki [7] | Ki [8] | Ki ratio [9]
1 | COC(=O)N(C)C(C)C#CCN(C)C (stereo not drawn) | > 100 mg/kg | > 100 mg/kg | 17.3 mg/kg | 17.3 mg/kg | 11.8 mg/kg | > 100 mg/kg | 16 nM | > 10000 nM | 
2 | O=C1CCCN1CC#CCN1CCCC1 [OXOTREMORINE] |  |  | 0.28 mg/kg | 0.221 mg/kg |  |  |  | 193 nM | 386
3 | Cc1cncn1CC#CCN1CCN(C)C1=O | > 100 mg/kg | > 100 mg/kg |  | 14 mg/kg | 2.5 mg/kg | 14 mg/kg | 8.6 nM | 381 nM | 44
4 | CC(=O)N(C)C(C)C#CCN1CCCC1 (stereo not drawn) | > 10 mg/kg |  | 0.66 mg/kg | 0.55 mg/kg | > 10 mg/kg | > 10 mg/kg |  |  | 
5 | CC(=O)N(C)C(C)C#CCn1ccnc1 (stereo not drawn) | > 100 mg/kg |  | 3 mg/kg | 3 mg/kg | 2 mg/kg | > 100 mg/kg | 12 nM | 1500 nM | 125
6 | CC(=O)NCC#CCn1cncc1C | 66 mg/kg | > 100 mg/kg | 66 mg/kg | > 100 mg/kg |  | 66 mg/kg | 213 nM | > 10000 nM | 
7 | CN(C)CC#CCN1CCCC1=O |  |  |  |  |  |  | 1.1 nM | 2600 nM | 2360
8 | CC(C#CCn1ccnc1)N1CCN(C)C1=O (stereo not drawn) | 21 mg/kg | > 100 mg/kg | > 100 mg/kg |  | 97 mg/kg | 21 mg/kg | 120 nM | 4009 nM | 33
9 | Cc1cncn1CC#CCN(C)C(=O)N(C)C | 11.8 mg/kg | > 100 mg/kg | > 100 mg/kg |  | 45.2 mg/kg | 9.7 mg/kg | 82 nM | > 10000 nM | 
10 | CCc1nccn1CC#CCN1CCCC1=O | 2.5 mg/kg |  | > 100 mg/kg | > 100 mg/kg | > 100 mg/kg | 0.54 mg/kg | 29.1 nM | 56.9 nM | 2
11 | CN(C)CC#CCN(C)C(=O)N(C)C | > 100 mg/kg | > 100 mg/kg | 6.6 mg/kg | 8 mg/kg | 2 mg/kg | > 100 mg/kg | 16 nM | > 10000 nM | 
12 | CCOC(=O)N(C)CC#CCn1ccnc1 | 97 mg/kg | > 100 mg/kg | > 100 mg/kg | > 100 mg/kg | > 100 mg/kg | 97 mg/kg | 206 nM | > 10000 nM | 
13 | Cc1cncn1CC#CCN1CCNC1=O | 66 mg/kg | > 100 mg/kg | > 100 mg/kg | > 100 mg/kg |  | 21 mg/kg | 138 nM | > 10000 nM | 
14 | O=C1CCCN1CC#CCn1cncn1 | > 100 mg/kg | > 100 mg/kg | > 100 mg/kg | > 100 mg/kg | > 100 mg/kg | > 100 mg/kg | > 10000 nM | > 10000 nM | 
15 | Cc1nccn1CC#CCN1CCCC1=O | > 100 mg/kg | > 100 mg/kg |  | 0.37 mg/kg | 0.25 mg/kg | 0.45 mg/kg | 0.3 nM | 3.8 nM | 13
16 | O=C1CCCN1CC#CCn1ccnc1 | > 100 mg/kg |  | 0.45 mg/kg | 0.45 mg/kg | 0.45 mg/kg | > 100 mg/kg | 1.3 nM | 600 nM | 460
17 | Cc1cn(CC#CCN2CCCC2=O)cn1 | 37 mg/kg | > 100 mg/kg | > 100 mg/kg | > 100 mg/kg |  | 14.2 mg/kg | 10.3 nM | 377 nM | 37
18 | COC(=O)N(C)CC#CCn1ccnc1 | > 100 mg/kg |  | 4.5 mg/kg | 4.5 mg/kg | 2 mg/kg | > 100 mg/kg | 10.2 nM | > 10000 nM | 
19 | O=C1NCCN1CC#CCn1ccnc1 | > 100 mg/kg | > 100 mg/kg | 30 mg/kg | 17.3 mg/kg |  | > 100 mg/kg | 62 nM | > 10000 nM | 
20 | O=C1CCCN1CC#CCn1cnc2ccccc21 | > 100 mg/kg | > 100 mg/kg | > 100 mg/kg | > 100 mg/kg | > 100 mg/kg | 80 mg/kg | > 10000 nM | > 10000 nM | 
21 | O=C1CCCN1CC#CCn1cccn1 | > 100 mg/kg | > 100 mg/kg | > 100 mg/kg | > 100 mg/kg | > 100 mg/kg | > 100 mg/kg | > 10000 nM | > 10000 nM | 

Row | Structure (SMILES) | ED50 (Mus musculus [1]) | ED50 (Mus musculus [2]) | ED50 (Mus musculus [3]) | ED50 (Mus musculus [4]) | ED50 (Mus musculus [5]) | ED50 (Mus musculus [6]) | Ki [7] | Ki [8] | Ki ratio [9]
22 | CN(C)CC#CCN1CCNC1=O | > 100 mg/kg |  | 9.7 mg/kg | 9.7 mg/kg | 9.7 mg/kg | > 100 mg/kg | 43 nM | > 10000 nM | 
23 | O=C1NCCN1CC#CCN1CCCC1 | > 3 mg/kg | > 3 mg/kg | > 3 mg/kg | > 3 mg/kg |  | > 3 mg/kg | 13 nM | 800 nM | 62
24 | CN1CCN(CC#CCN2CCCC2)C1=O | > 3 mg/kg |  | 0.3 mg/kg | 0.21 mg/kg | 0.14 mg/kg | > 3 mg/kg | 2.7 nM | 180 nM | 67
25 | CN(C)C(=O)N(C)CC#CCn1ccnc1 | > 100 mg/kg | > 100 mg/kg |  | 25.4 mg/kg | 11.8 mg/kg | 11.8 mg/kg | 14.6 nM | > 10000 nM | 
26 | CN(C)CC#CCn1ccn(C)c1=O | > 100 mg/kg |  | 8 mg/kg | 8 mg/kg | 5.4 mg/kg | > 100 mg/kg | 37 nM | > 10000 nM | 
27 | CC1CCC(=O)N1CC#CCn1ccnc1 (stereo not drawn) | 1.1 mg/kg |  | > 100 mg/kg | > 100 mg/kg | > 100 mg/kg | 0.54 mg/kg | 23 nM | 171 nM | 7.4
28 | CC(=O)N(C)CC#CCn1cncc1C | > 100 mg/kg | > 100 mg/kg |  | 45 mg/kg | 5.4 mg/kg | 6.6 mg/kg | 3.61 nM | 172 nM | 48
29 | COC(=O)N(C)CC#CCN(C)C | > 30 mg/kg | > 30 mg/kg | 9.7 mg/kg | 14.3 mg/kg | 17.3 mg/kg | > 30 mg/kg | 19 nM | > 10000 nM | 
30 | CN(C)CC#CCN1CCN(C)C1=O | > 10 mg/kg |  | 0.54 mg/kg | 0.54 mg/kg | 0.37 mg/kg | > 10 mg/kg | 4.5 nM | 180 nM | 40
31 | CC(=O)N(C)C(C)C#CCn1ccnc1C (stereo not drawn) | 0.2 mg/kg |  | > 100 mg/kg | > 100 mg/kg | > 100 mg/kg | 0.05 mg/kg | 1.6 nM | 19 nM | 12
32 | Cn1ccn(CC#CCN2CCCC2)c1=O | > 10 mg/kg |  | 6.6 mg/kg | 6.6 mg/kg | 3.7 mg/kg | > 10 mg/kg | 7.1 nM | 510 nM | 72
33 | Cc1cn(CC#CCN2CCCC2=O)c(C)n1 | 14.2 mg/kg |  | > 100 mg/kg | > 100 mg/kg | > 100 mg/kg | 8 mg/kg | 68 nM | 160 nM | 2.4
34 | CC(C#CCn1ccnc1)N1CCCC1=O (stereo not drawn) | 3.7 mg/kg |  | > 100 mg/kg | > 100 mg/kg | > 100 mg/kg | 2 mg/kg | 33.5 nM | 556 nM | 17
35 | CC(C#CCN1CCCC1)N1CCN(C)C1=O (stereo not drawn) | 25 mg/kg |  | > 30 mg/kg | > 30 mg/kg | > 30 mg/kg | 4.5 mg/kg | 13 nM | 130 nM | 10
36 | CC(=O)NCC#CCn1ccnc1 | > 100 mg/kg | > 100 mg/kg | > 100 mg/kg | > 100 mg/kg |  | > 100 mg/kg | 187 nM | > 10000 nM | 
37 | Cn1ccn(CC#CCn2ccnc2)c1=O | > 100 mg/kg |  | 4.4 mg/kg | 3.7 mg/kg | 4.5 mg/kg | > 100 mg/kg | 35 nM | > 10000 nM | 
38 | CN1CCN(CC#CCn2ccnc2)C1=O | > 100 mg/kg |  | 1.4 mg/kg | 1.4 mg/kg | 0.97 mg/kg | > 100 mg/kg | 2.1 nM | 1868 nM | 890
39 | CC(=O)N(C)CC#CCn1ccnc1 | > 100 mg/kg |  | 1.4 mg/kg | 1.4 mg/kg | 0.97 mg/kg | > 100 mg/kg | 1.92 nM | > 10000 nM | 
40 | CC(=O)N(C)C(C)C#CCn1cncc1C (stereo not drawn) | 3.7 mg/kg |  | > 100 mg/kg | > 100 mg/kg | > 100 mg/kg | 1.1 mg/kg | 10 nM | 184 nM | 18
41 | CC(=O)N(C)CC#CCN(C)C | > 10 mg/kg | > 10 mg/kg | 1.73 mg/kg | 1.73 mg/kg | 0.97 mg/kg | > 10 mg/kg | 4.2 nM | > 10000 nM | 
42 | CCOC(=O)N(C)C(C)C#CCn1ccnc1 (stereo not drawn) | 66 mg/kg | > 100 mg/kg | > 100 mg/kg | > 100 mg/kg | > 100 mg/kg | 54 mg/kg | 273 nM | > 10000 nM | 
